# Where no end group is shown, it is not given here.
# How the values were obtained:
# tissue pieces in vitro = details: Jahn et al Eur. J. Biochem 126: 623, 1982; cited from earlier work
# rabbits with dry eyes = experiment: Tear film osmolality after topical drops in dry eye rabbits; type: in vivo; details: dry eye rabbit, topical 10 μl drops, 10^-5 M, 10^-4 M and 10^-3 M in buffer, FIGS. 2 to 4; for tear film osmolality compared with buffer alone: tear samples at 6 and 16 minutes
# Description: In vivo examples in accordance with the invention were conducted on rabbits with dry eyes. The dry eye disorder is created by surgically closing the duct that carries fluid from the main lacrimal gland to the tear film and surgically removing the nictitans and harderian glands. This leaves intact only the accessory glands that lie on the surface of the eye. These rabbits develop increased tear film osmolality soon after the operation, a finding that is understood to be due to decreased tear production, and that is characteristic of dry eye. It is recognized that results of opthalmologic tests using rabbits has close correlation with humans and therefore the results carry over to humans
# The effect on tear film osmolality of topically applied isotonic buffer solution with and without melanocyte stimulating hormones which activate the melanotropin receptors was studied in the dry eye rabbit. All test drops were ten microliters (μl) in volume. Tear samples were taken with a micropipette system, in the manner described in the article entitled "Osmolarity of Tear Microvolumes in Keratoconjunctivitis Sicca", by Gilbard et al, Arch Ophthalmol 96:677, 1978. Osmolarity was measured by freezing-point depression.
# The following protocol was used to test the effects of the topically applied melanotropins. At zero time a tear sample was taken for measurement of osmolality. At one minute the test drop was instilled. At six and at sixteen minutes, tear samples were taken for osmolality measurements. Five minutes after the sixteen minute sample, the above sequence was repeated several times to test additional drops.
# The following drops were instilled in the test eye and after each such instillation, test samples were taken as stated: (1) buffer solution, (2) buffer solution containing a melanocyte stimulating hormone at a low dose, (3) buffer solution, (4) buffer solution containing a melanocyte stimulating hormone at a moderate dose, (5) buffer solution, (6) buffer solution containing a melanocyte stimulating hormone at a higher dose. The melanocyte stimulating hormone may be obtained from Peninsula Laboratories,Inc., Belmont California. The results are shown in FIGS. 1 through 4 A, B, and C, where FIGS. 1 through 4 each represent results obtained from the same rabbit.
# lacrimal gland = details: topical administration; Gilbard and Dartt, patent pending; cited from earlier work
# lacrimal gland cells = details: Dartt et al, Am. J. Physio. 247: G502, 1984; cited from earlier work
Substance,protein secretion (tissue pieces in vitro),dose dependence of the decrease in tear film osmolality (rabbits with dry eyes),tear film osmolality compared with buffer alone (rabbits with dry eyes),lacrimal gland fluid secretion (lacrimal gland),cyclic AMP levels in lacrimal gland cells (lacrimal gland cells)
"adrenocorticotropic hormone (SYSMEHFRWGKPVGKKRRPVKVYPNGAEDESAEAFPLEF; Corticotropin; UniProt P01189 138-176, looked up) [hormone cited from literature as stimulating protein secretion in vitro]",stimulate protein secretion,,,,
beta-melanocyte stimulating hormone [beta-MSH],,dose-dependent decrease in tear film osmolality,lowers the tear film osmolality more effectively than buffer alone,,
gamma-melanocyte stimulating hormone [gamma-MSH],,dose-dependent decrease in tear film osmolality,lowers the tear film osmolality more effectively than buffer alone,,
"vasoactive intestinal peptide (HSDAVFTDNYTRLRKQMAVKKYLNSILN; ends and bridges not checked; UniProt P01282 125-152, looked up) [peptide cited from prior work as stimulating lacrimal gland fluid secretion]",,,,stimulates lacrimal gland fluid secretion,increase cyclic AMP levels

# Reference: patent publication US4868154A, “Stimulation of tear secretion with melanocyte stimulating hormones” (Eye Research Institute of Retina Foundation, priority 1986, dated 1989)
